According to patent publication US8754209B2, “Indazole derivatives or pharmaceutically acceptable salts thereof as protein kinase inhibitors for proliferative diseases treatment, and a pharmaceutical composition containing the same as an active ingredient” (Korea Institute of Science and Technology, priority 2009, dated 2014):

Experiments:
[1] = target: B-Raf-V600E (Homo sapiens, UniProt P15056, V600E); test: B-Raf kinase enzyme assay (MEK1/Erk2 cascade, MBP phosphorylation, 32P); format: biochemical; settings: read-out: b-raf-V600Ekinase inhibitory activity (IC50)
B-Raf-V600E, sequence (P15056 whole entry V600E): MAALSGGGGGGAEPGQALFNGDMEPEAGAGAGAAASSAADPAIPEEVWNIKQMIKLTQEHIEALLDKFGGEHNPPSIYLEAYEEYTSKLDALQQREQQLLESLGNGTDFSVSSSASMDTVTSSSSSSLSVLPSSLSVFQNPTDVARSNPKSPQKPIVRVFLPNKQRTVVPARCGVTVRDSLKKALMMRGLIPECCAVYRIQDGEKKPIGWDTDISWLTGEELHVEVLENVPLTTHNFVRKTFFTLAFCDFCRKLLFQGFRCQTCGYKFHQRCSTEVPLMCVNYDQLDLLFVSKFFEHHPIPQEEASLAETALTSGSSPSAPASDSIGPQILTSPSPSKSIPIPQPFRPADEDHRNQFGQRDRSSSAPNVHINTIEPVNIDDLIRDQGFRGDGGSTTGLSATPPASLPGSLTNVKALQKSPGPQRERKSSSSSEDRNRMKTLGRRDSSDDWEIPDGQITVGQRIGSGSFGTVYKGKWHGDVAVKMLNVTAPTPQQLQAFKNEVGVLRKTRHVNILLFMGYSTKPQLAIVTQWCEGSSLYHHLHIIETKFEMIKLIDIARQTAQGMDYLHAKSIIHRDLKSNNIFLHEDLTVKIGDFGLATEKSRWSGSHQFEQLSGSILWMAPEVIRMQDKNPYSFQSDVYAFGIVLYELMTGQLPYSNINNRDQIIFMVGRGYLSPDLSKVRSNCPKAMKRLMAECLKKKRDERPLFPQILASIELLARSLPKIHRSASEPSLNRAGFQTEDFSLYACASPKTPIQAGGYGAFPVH
Method: <1-1> Activation of MAP Kinase 2/Erk2 by B-raf
10 μl magnesium chloride/ATP solution (500 uM ATP, 75 mM magnesium chloride) was seeded in eppendorf tube. 2.5 μl B-Raf-V600E was seed (final conc. 1 ng) in eppendorf tube and treated with 1.6 μl deactivated MEK1 (final conc. 0.4 μg). The mixture was treated with 4 μl deactivated MAP kinase 2/Erk2 (final conc. 1.0 ug). And the mixture was treated with 1 μl example solution (10 mM) dissolved in dimethyl sulfoxide which was orderly diluted. Then, assay dilution buffer I (ADBI I) was added thereto (final vol. 38 μl) to make the final volume of 38 μl, and made it reacted at 30° C. for 30 min. 5 μl of resulting solution was used for the following experiment.
<1-2> Phosphorylation of Myelin basic protein (MBP)
5 μl of the above resulting solution was treated with 10 μl assay dilution buffer, and then treated with 10 μl Myelin basic protein (MBP, 2 mg/Ml). The mixture solution was treated with 10 μl of diluted (1/10) [γ^32P] ATP (100 uCi/vial) which is diluted at 30° C. for 10 min. 25 μl of the mixture solution was spotted onto a P81 paper, and the paper was washed four times with 0.75% phosphoric acid for 10 min and once with acetone for 5 min in scintillation vial. After 5 Ml of scintillation cocktail solution was added in the scintillation vial, signals were analyzed by scintillation counter.

[2] = test system: A375P cells; test: Anti-proliferative activity on A375P cell line (MTT assay); format: cell-based; settings: A375P human melanoma cell line
Method: A375P cells were purchased from American Type Culture Collection (ATCC, Rockville, Md., US) and maintained in DMEM medium (Welgene, Daegu, Korea) supplemented with 10% FBS (Welgene) and 1% penicillin/streptomycin (Welgene) in a humidified atmosphere with 5% CO2 at 37° C. The A375P cells were taken from culture substrate with 0.05% trypsin-0.02% EDTA and plated at a density of 5×10^3 cells/well in 96 well plates and then incubated at 37° C. for 24 h in a humidified atmosphere with 5% CO2 prior to treatment of various concentration (three fold serial dilution, 12 points) of test compounds. The A357P cell viability was assessed by the conventional 3-(4,5-dimethylthiazol-2-yl)-2,5-diphenyltetrazolium bromide (MTT) reduction assay. MTT assays were carried out with CellTiter 96 (Promega) according to the manufacturer's instructions.
After 1 day, 0.5 μl the representative compounds of the examples were added thereto. The representative compounds of the examples were prepared by three fold serial dilution of 10 mM stock solution in DMSO, 12 point (final conc. DMSO 0.5%). Then, 15 μl dye was added in each well. After 2 h, 100 μl stop solution was added each well. After 24 h, absorbance was measured. The absorbance at 590 nm was recorded using EnVision2103 (PerkinElmer; Boston, Mass., US). The IC50 value was calculated using GraphPad Prism 4.0 software.

[3] = cited from earlier work

Row | Structure (SMILES) | IC50 [1] | GI50 [2] | other results
1 | CNC(=O)c1cc(Oc2ccc(NC(=O)Nc3ccc(Cl)c(C(F)(F)F)c3)cc2)ccn1 [Sorafenib] |  |  | skin toxicity side effect, grade ([3]; 600 mg twice a day): 3; MTD (maximum tolerated dose) ([3]; twice a day, phase II clinical investigation): 400 mg
2 | CNC(=O)c1n[nH]c2cc(-c3ccc(NC(=O)c4cccc(C(F)(F)F)c4)cc3)ccc12 [Example 24, N-methyl-6-(4-(3-(trifluoromethyl)benzamido)phenyl)-1H-indazole-3-carboxamide] | < 10 µM | < 10 µM | 
3 | O=C(Nc1cccc(-c2ccc3c(C(=O)NCCN4CCOCC4)n[nH]c3c2)c1)c1cccc(C(F)(F)F)c1 [Example 50, N-(2-morpholinoethyl)-6-(3-(3-(trifluoromethyl)benzamido)phenyl)-1H-indazole-3-carboxamide] | < 10 µM |  | 
4 | CCOC(=O)c1n[nH]c2cc(-c3ccc(NC(=O)c4csc(-c5ccncc5)n4)cc3)ccc12 [Example 17, ethyl 6-(4-(2-(pyridin-4-yl)thiazole-4-carboxamido)phenyl)-1H-indazole-3-carboxylate] | < 10 µM |  | 
5 | CCOC(=O)c1n[nH]c2cc(-c3cc(NC(=O)Nc4ccc(Cl)c(C(F)(F)F)c4)ccc3C)ccc12 [Example 57, ethyl 6-(5-(3-(4-chloro-3-(trifluoromethyl)phenyl)ureido)-2-methylphenyl)-1H-indazole-3-carboxylate] | < 10 µM | < 10 µM | 
6 | CCOC(=O)c1n[nH]c2cc(-c3cccc(NC(=O)c4cc(N5CCC(O)CC5)cc(C(F)(F)F)c4)c3)ccc12 [Example 76, ethyl 6-(3-(3-(4-hydroxypiperidin-1-yl)-5-(trifluoromethyl)benzamido)phenyl)-1H-indazole-3-carboxylate] |  | < 10 µM | 
7 | O=C(Nc1cccc(-c2ccc3c(CO)n[nH]c3c2)c1)Nc1ccc(Cl)c(C(F)(F)F)c1 [Example 79, 1-(4-chloro-3-(trifluoromethyl)phenyl)-3-(3-(3-(hydroxymethyl)-1H-indazol-6-yl)phenyl)urea] | < 10 µM | < 10 µM | 
8 | CCNC(=O)c1n[nH]c2cc(-c3cccc(NC(=O)Nc4ccc(Cl)c(Cl)c4)c3)ccc12 [Example 62, 6-(3-(3-(3,4-dichlorophenyl)ureido)phenyl)-N-ethyl-1H-indazole-3-carboxamide] |  | < 10 µM | 
9 | CCOC(=O)c1n[nH]c2cc(-c3cccc(NC(=O)Cc4ccc(OC)c(OC)c4)c3)ccc12 [Example 48, ethyl 6-(3-(2-(3,4-dimethoxyphenyl)acetamido)phenyl)-1H-indazole-3-carboxylate] | < 10 µM | < 10 µM | 
10 | O=C(Nc1ccc(-c2ccc3c(C(=O)NCCN4CCOCC4)n[nH]c3c2)cc1)c1ccc(Br)s1 [Example 31, 6-(4-(5-bromothiophene-2-carboxamido)phenyl)-N-(2-morpholinoethyl)-1H-indazole-3-carboxamide] |  | < 10 µM | 
11 | CNC(=O)c1n[nH]c2cc(-c3cc(NC(=O)c4cc(-n5cnc(C)c5)cc(C(F)(F)F)c4)ccc3C)ccc12 [Example 73, N-methyl-6-(2-methyl-5-(3-(4-methyl-1H-imidazol-1-yl)-5-(trifluoromethyl)benzamido)phenyl)-1H-indazole-3-carboxamide] |  | < 10 µM | 
12 | Cc1ccc(NC(=O)Nc2ccc(Cl)c(C(F)(F)F)c2)cc1-c1ccc2c(C(=O)NC3CC3)n[nH]c2c1 [Example 66, 6-(5-(3-(4-chloro-3-(trifluoromethyl)phenyl)ureido)-2-methylphenyl)-N-cyclopropyl-1H-indazole-3-carboxamide] |  | < 10 µM | 
13 | COC(=O)c1n[nH]c2cc(-c3cccc(NC(=O)c4cc(N5CCOCC5)cc(C(F)(F)F)c4)c3)ccc12 [Example 52, methyl 6-(3-(3-morpholino-5-(trifluoromethyl)benzamido)phenyl)-1H-indazole-3-carboxylate] |  | < 10 µM | 
14 | O=C(Nc1cccc(-c2ccc3c(C(=O)NCCN4CCOCC4)n[nH]c3c2)c1)Nc1ccc(Cl)c(C(F)(F)F)c1 [Example 58, 6-(3-(3-(4-chloro-3-(trifluoromethyl)phenyl)ureido)phenyl)-N-(2-morpholinoethyl)-1H-indazole-3-carboxamide] | < 10 µM | < 10 µM | 
15 | CCOC(=O)c1n[nH]c2cc(-c3cccc(NC(=O)Nc4ccc(Cl)c(Cl)c4)c3)ccc12 [Example 55, ethyl 6-(3-(3-(3,4-dichlorophenyl)ureido)phenyl)-1H-indazole-3-carboxylate] |  | < 10 µM | 
16 | CCOC(=O)c1n[nH]c2cc(-c3cccc(NC(=O)Nc4cccc(Cl)c4Cl)c3)ccc12 [Example 54, ethyl 6-(3-(3-(2,3-dichlorophenyl)ureido)phenyl)-1H-indazole-3-carboxylate] | < 10 µM | < 10 µM | 

Continued, in another order:

Row | IC50 [1] | GI50 [2] | Structure (SMILES) | other results
17 | < 10 µM | < 10 µM | CCOC(=O)c1n[nH]c2cc(-c3ccc(NC(=O)Nc4ccc(Cl)c(C(F)(F)F)c4)cc3)ccc12 [Example 21, ethyl 6-(4-(3-(4-chloro-3-(trifluoromethyl)phenyl)ureido)phenyl)-1H-indazole-3-carboxylate] | 
18 | < 10 µM | < 10 µM | CCOC(=O)c1n[nH]c2cc(-c3ccc(NC(=O)c4cnn(-c5ccc(OC)cc5)c4C(F)(F)F)cc3)ccc12 [Example 8, ethyl 6-(4-(1-(4-methoxyphenyl)-5-(trifluoromethyl)-1H-pyrazole-4-carboxamido)phenyl)-1H-indazole-3-carboxylate] | 
19 |  | < 10 µM | Cc1ccc(NC(=O)Nc2ccc(Cl)c(C(F)(F)F)c2)cc1-c1ccc2c(C(=O)NCCN(C)C)n[nH]c2c1 [Example 65, 6-(5-(3-(4-chloro-3-(trifluoromethyl)phenyl)ureido)-2-methylphenyl)-N-(2-(dimethylamino)ethyl)-1H-indazole-3-carboxamide] | 
20 |  | < 10 µM | COC(=O)c1n[nH]c2cc(-c3cccc(NC(=O)Nc4ccc(N5CCN(C)CC5)c(C(F)(F)F)c4)c3)ccc12 [Example 70, methyl 6-(3-(3-(4-(4-methylpiperazin-1-yl)-3-(trifluoromethyl)phenyl)ureido)phenyl)-1H-indazole-3-carboxylate] | 
21 |  | < 10 µM | COC(=O)c1n[nH]c2cc(-c3cccc(NC(=O)c4ccc(OC5CCN(C)CC5)c(C(F)(F)F)c4)c3)ccc12 [Example 78, methyl 6-(3-(4-(1-methylpiperidin-4-yloxy)-3-(trifluoromethyl)benzamido)phenyl)-1H-indazole-3-carboxylate] | 
22 |  | < 10 µM | CCOC(=O)c1n[nH]c2cc(-c3ccc(NC(=O)c4ccc(OC5CCN(C)CC5)c(C(F)(F)F)c4)cc3)ccc12 [Example 19, ethyl 6-(4-(4-(1-methylpiperidin-4-yloxy)-3-(trifluoromethyl)benzamido)phenyl)-1H-indazole-3-carboxylate] | 
23 |  | < 10 µM | CCOC(=O)c1n[nH]c2cc(-c3ccc(NC(=O)c4ccc(-c5cc(C(F)(F)F)ccc5Cl)o4)cc3)ccc12 [Example 16, ethyl 6-(4-(5-(2-chloro-5-(trifluoromethyl)phenyl)furan-2-carboxamido)phenyl)-1H-indazole-3-carboxylate] | 
24 |  | < 10 µM | O=C(Nc1ccc(-c2ccc3c(C(=O)NCCN4CCOCC4)n[nH]c3c2)cc1)Nc1ccc(Cl)c(Cl)c1 [Example 36, 6-(4-(3-(3,4-dichlorophenyl)ureido)phenyl)-N-(2-morpholinoethyl)-1H-indazole-3-carboxamide] | 
25 |  | < 10 µM | CCOC(=O)c1n[nH]c2cc(-c3ccc(NC(=O)c4ccnnc4)cc3)ccc12 [Example 10, ethyl 6-(4-(pyridazine-4-carboxamido)phenyl)-1H-indazole-3-carboxylate] | 
